This note sets out measurements from patent US20210205277A1, “MODULATORS OF THE INTEGRATED STRESS PATHWAY” (Calico Life Sciences LLC, priority 2017, published 2021).

Bounds are passed on as bounds.

This assay has as its system HEK293T cells carrying the ATF4 luciferase reporter. Briefly: ATF4-Luc assay (in vitro model of VWMD). The class given is cell-based. The settings on record: Homo sapiens, HEK-293T; HEK293T cells with ATF4 5'-UTR firefly luciferase reporter; 1 μg/mL tunicamycin; 7 hours; One Glo luminescence. How it is done: In order to test exemplary compounds of the invention in a cellular context, a stable VWMD cell line was first constructed. The ATF4 reporter was prepared by fusing the human full-length ATF4 5′-UTR (NCBI Accession No. BC022088.2) in front of the firefly luciferase (FLuc) coding sequence lacking the initiator methionine as described in Sidrauski et al (eLife 2013). The construct was used to produce recombinant retroviruses using standard methods and the resulting viral supernatant was used to transduce HEK293T cells, which were then subsequently selected with puromycin to generate a stable cell line.
HEK293T cells carrying the ATF4 luciferase reporter were plated on polylysine coated 384-well plates (Greiner Bio-one) at 30,000 cells per well. Cells were treated the next day with 1 μg/mL tunicamycin and 200 nM of a compound of Formula (I) for 7 hours. Luminescence was measured using One Glo (Promega) as specified by the manufacturer. Cells were maintained in DMEM with L-glutamine supplemented with 10% heat-inactivated FBS (Gibco) and Antibiotic-Antimycotic solution (Gibco).
Table 2 below summarizes the EC50 data obtained using the ATF4-Luc assay for exemplary compounds of the invention.
Turning to `O=C(COc1ccc(Cl)c(F)c1)NC12CCC(c3nnc(-c4ccc(Cl)c(F)c4)o3)(CC1)[C@H](O)C2` (single isomer, unassigned) [Compound 101], the EC50 was below 10 nM.

Turning to `O=C(COc1ccc(Cl)c(F)c1)NC12CCC(c3nnc(-c4ccc(Cl)c(F)c4)o3)(CC1)C[C@H]2O` (single isomer, unassigned) [Compound 122], the EC50 was below 10 nM.

As to `O=C(COc1ccc(Cl)c(F)c1)NC12CCC(c3nnc(-c4ccc(Cl)c(F)c4)o3)(CC1)C[C@@H]2O` (single isomer, unassigned) [Compound 123], the EC50 is below 10 nM.

For the molecule `O=C(COc1ccc(Cl)c(F)c1)NC12CCC(c3nnc(-c4ccc(Cl)c(F)c4)o3)(CC1)[C@@H](O)C2` [Compound 100, 2-(4-chloro-3-fluorophenoxy)-N-{(3S)-4-[5-(4-chloro-3-fluorophenyl)-1,3,4-oxadiazol-2-yl]-3-hydroxybicyclo[2.2.2]octan-1-yl}acetamide], the EC50 is below 10 nM.

For the molecule `O=C(COc1ccc(Cl)c(F)c1)NC12CCC(n3ccc(-c4ccc(Cl)c(F)c4)c3)(CC1)CC2O` (stereo not shown) [Compound 102, 2-(4-chloro-3-fluorophenoxy)-N-{4-[3-(4-chloro-3-fluorophenyl)-1H-pyrrol-1-yl]-2-hydroxybicyclo[2.2.2]octan-1-yl}acetamide], the EC50 was below 10 nM.

Regarding `O=C(COc1ccc(Cl)c(F)c1)NC12CCC(c3nc(-c4ccc(Cl)c(F)c4)no3)(CC1)[C@H](O)C2` [Compound 103, 2-(4-chloro-3-fluorophenoxy)-N-{(3R)-4-[3-(4-chloro-3-fluorophenyl)-1,2,4-oxadiazol-5-yl]-3-hydroxybicyclo[2.2.2]octan-1-yl}acetamide], the EC50 fell in the range of 10 to 50 nM.

On to `O=C(COc1ccc(Cl)c(F)c1)NC12CCC(c3nc(-c4ccc(Cl)c(F)c4)no3)(CC1)[C@@H](O)C2` [Compound 104, 2-(4-chloro-3-fluorophenoxy)-N-{(3S)-4-[3-(4-chloro-3-fluorophenyl)-1,2,4-oxadiazol-5-yl]-3-hydroxybicyclo[2.2.2]octan-1-yl}acetamide], for which the EC50 was below 10 nM.

For `O=C(COc1ccc(Cl)c(F)c1)NC12CCC(c3nc(-c4ccc(Cl)c(F)c4)no3)(CC1)C(=O)C2` [Compound 105, 2-(4-chloro-3-fluorophenoxy)-N-{4-[3-(4-chloro-3-fluorophenyl)-1,2,4-oxadiazol-5-yl]-3-oxobicyclo[2.2.2]octan-1-yl}acetamide], the EC50 was below 10 nM.

On to `O=C(COc1ccc(Cl)c(F)c1)NC12CCC(c3nnc(-c4ccc(Cl)c(F)c4)o3)(CC1)C(=O)C2` [Compound 106, 2-(4-chloro-3-fluorophenoxy)-N-{4-[5-(4-chloro-3-fluorophenyl)-1,3,4-oxadiazol-2-yl]-3-oxobicyclo[2.2.2]octan-1-yl}acetamide], for which the EC50 was below 10 nM.

`O=C(COc1ccc(Cl)c(F)c1)NC12CCC(c3nnc(-c4ccc(Cl)c(F)c4)o3)(CC1)C(O)C2` (stereo not shown) [Compound 107, 2-(4-chloro-3-fluorophenoxy)-N-{4-[5-(4-chloro-3-fluorophenyl)-1,3,4-oxadiazol-2-yl]-3-hydroxybicyclo[2.2.2]octan-1-yl}acetamide]: the EC50 was below 10 nM.

`O=C(COc1ccc(Cl)c(F)c1)NC12CCC(c3nnc(-c4ccc(Cl)c(F)c4)o3)(CC1)CC2O` (stereo not shown) [Compound 108, 2-(4-chloro-3-fluorophenoxy)-N-{4-[5-(4-chloro-3-fluorophenyl)-1,3,4-oxadiazol-2-yl]-2-hydroxybicyclo[2.2.2]octan-1-yl}acetamide]: the EC50 was below 10 nM.

For `O=C(COc1ccc(Cl)c(F)c1)NC12CCC(n3ccc(-c4ccc(Cl)cc4)c3)(CC1)CC2O` (stereo not shown) [Compound 109, 2-(4-chloro-3-fluorophenoxy)-N-{4-[3-(4-chlorophenyl)-1H-pyrrol-1-yl]-2-hydroxybicyclo[2.2.2]octan-1-yl}acetamide], the EC50 was 10 to 50 nM.

Consider `O=C(COc1ccc(Cl)c(F)c1)NC12CCC(c3ncc(-c4ccc(Cl)cc4)[nH]3)(CC1)[C@@H](O)C2` [Compound 110, 2-(4-chloro-3-fluorophenoxy)-N-{(3S)-4-[5-(4-chlorophenyl)-1H-imidazol-2-yl]-3-hydroxybicyclo[2.2.2]octan-1-yl}acetamide], for which the half-maximal effective concentration (EC50) was below 10 nM.

Take `O=C(COc1ccc(Cl)c(F)c1)NC12CCC(c3nc(-c4ccc(Cl)c(F)c4)no3)(CC1)CC2=O` [Compound 111, 2-(4-chloro-3-fluorophenoxy)-N-{4-[3-(4-chloro-3-fluorophenyl)-1,2,4-oxadiazol-5-yl]-2-oxobicyclo[2.2.2]octan-1-yl}acetamide]: the EC50 was above 2000 nM.

Regarding `O=C(COc1ccc(Cl)c(F)c1)NC12CCC(n3nccc3-c3ccc(Cl)c(F)c3)(CC1)C[C@@H]2O` [Compound 112, 2-(4-chloro-3-fluorophenoxy)-N-{(2S)-4-[5-(4-chloro-3-fluorophenyl)-1H-pyrazol-1-yl]-2-hydroxybicyclo[2.2.2]octan-1-yl}acetamide], the EC50 was 500 to 2000 nM.

In the case of `O=C(COc1ccc(Cl)c(F)c1)NC12CCC(n3ccc(-c4ccc(Cl)c(F)c4)c3)(CC1)C[C@@H]2O` [Compound 113, 2-(4-chloro-3-fluorophenoxy)-N-{(2S)-4-[3-(4-chloro-3-fluorophenyl)-1H-pyrrol-1-yl]-2-hydroxybicyclo[2.2.2]octan-1-yl}acetamide], the EC50 was below 10 nM.

Consider `O=C(COc1ccc(Cl)c(F)c1)NC12CCC(c3ncc(-c4ccc(Cl)cc4)o3)(CC1)[C@H](O)C2` [Compound 114, 2-(4-chloro-3-fluorophenoxy)-N-{(3R)-4-[5-(4-chlorophenyl)-1,3-oxazol-2-yl]-3-hydroxybicyclo[2.2.2]octan-1-yl}acetamide], for which the EC50 was below 10 nM.

With `O=C(COc1ccc(Cl)c(Cl)c1)NC12CCC(n3ccc(-c4ccc(Cl)c(F)c4)c3)(CC1)C[C@@H]2O` [Compound 115, N-{(2S)-4-[3-(4-chloro-3-fluorophenyl)-1H-pyrrol-1-yl]-2-hydroxybicyclo[2.2.2]octan-1-yl}-2-(3,4-dichlorophenoxy)acetamide], the EC50 is below 10 nM.

As to `O=C(COc1ccc(Cl)c(F)c1)NC12CC(c3ncc(-c4ccc(Cl)c(F)c4)[nH]3)(C1)C2` [Compound 116, 2-(4-chloro-3-fluorophenoxy)-N-{3-[5-(4-chloro-3-fluorophenyl)-1H-imidazol-2-yl]bicyclo[1.1.1]pentan-1-yl}acetamide], the EC50 is below 10 nM.

On to `Cn1c(-c2ccc(Cl)c(F)c2)cnc1C12CC(NC(=O)COc3ccc(Cl)c(F)c3)(C1)C2` [Compound 117, 2-(4-chloro-3-fluorophenoxy)-N-{3-[5-(4-chloro-3-fluorophenyl)-1-methyl-1H-imidazol-2-yl]bicyclo[1.1.1]pentan-1-yl}acetamide], for which the EC50 was 10 to 50 nM.

On to `O=C(COc1ccc(Cl)c(F)c1)NC12CCC(c3ncc(-c4ccc(Cl)cc4)[nH]3)(CC1)[C@H](O)C2` [Compound 118, 2-(4-chloro-3-fluorophenoxy)-N-{(3R)-4-[5-(4-chlorophenyl)-1H-imidazol-2-yl]-3-hydroxybicyclo[2.2.2]octan-1-yl}acetamide], for which the EC50 is below 10 nM.

With `O=C(COc1ccc(Cl)c(F)c1)NC12CCC(c3ncc(-c4ccc(Cl)c(F)c4)[nH]3)(CC1)[C@@H](O)C2` [Compound 119, 2-(4-chloro-3-fluorophenoxy)-N-{(3S)-4-[5-(4-chloro-3-fluorophenyl)-1H-imidazol-2-yl]-3-hydroxybicyclo[2.2.2]octan-1-yl}acetamide], the EC50 was below 10 nM.

In the case of `O=C(NC12CCC(c3nc(-c4cccc(F)c4)no3)(CC1)C(O)C2)c1cc(C(F)F)no1` (stereo not shown) [Compound 120, 3-(difluoromethyl)-N-{4-[3-(3-fluorophenyl)-1,2,4-oxadiazol-5-yl]-3-hydroxybicyclo[2.2.2]octan-1-yl}-1,2-oxazole-5-carboxamide], the EC50 was above 2000 nM.

Turning to `O=C(NC12CCC(c3nc(-c4ccc(Cl)c(F)c4)no3)(CC1)C(O)C2)c1cc(C(F)F)no1` (stereo not shown) [Compound 121, N-{4-[3-(4-chloro-3-fluorophenyl)-1,2,4-oxadiazol-5-yl]-3-hydroxybicyclo[2.2.2]octan-1-yl}-3-(difluoromethyl)-1,2-oxazole-5-carboxamide], the EC50 fell in the range of 500 to 2000 nM.

In the case of `COc1ncc(-c2nnc(C34CCC(NC(=O)COc5ccc(Cl)c(F)c5)(CC3)C(O)C4)o2)cn1` (stereo not shown) [Compound 124, 2-(4-chloro-3-fluorophenoxy)-N-{2-hydroxy-4-[5-(2-methoxypyrimidin-5-yl)-1,3,4-oxadiazol-2-yl]bicyclo[2.2.2]octan-1-yl}acetamide], the EC50 is above 2000 nM.
